According to patent US20130131075A1, “NEW COMPOUNDS” (Boehringer Ingelheim International GmbH, priority 2009, published 2013):

The compounds below were run against T1, cynomolgus BK1-receptor (Macaca fascicularis, UniProt Q3BCU0) (assay: cynoBK1-receptor binding assay). Details: CHO cells expressing cynomolgus BK1-receptor, radioligand kallidine (DesArg10,Leu9).
T1 construct: expressed in transfected cells; host or cells: CHO cells (homogenate)
T1 sequence (Q3BCU0 1-352): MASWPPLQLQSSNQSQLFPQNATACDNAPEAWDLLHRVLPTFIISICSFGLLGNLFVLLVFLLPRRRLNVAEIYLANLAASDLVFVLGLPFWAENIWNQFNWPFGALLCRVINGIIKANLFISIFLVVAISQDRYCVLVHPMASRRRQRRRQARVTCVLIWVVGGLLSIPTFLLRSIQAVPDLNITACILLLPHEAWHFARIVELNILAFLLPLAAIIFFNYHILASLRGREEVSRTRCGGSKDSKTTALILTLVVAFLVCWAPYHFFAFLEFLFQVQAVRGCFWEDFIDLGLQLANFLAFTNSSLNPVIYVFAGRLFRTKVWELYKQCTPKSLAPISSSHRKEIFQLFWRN
Method: Description of the Method of Binding the cynoBK1-Receptor
CHO cells that express the cynomolgus BK1-receptor are cultivated in “HAM'S F-12 Medium”. The medium is removed from confluent cultures, the cells are washed with PBS buffer, scraped off or detached using Versene and isolated by centrifuging. Then the cells are homogenised in suspension, the homogenate is centrifuged and resuspended. After the protein content has been determined 200 μl of the homogenate (50 to 250 μg protein/assay) are incubated for 60-180 minutes at ambient temperature with 0.5 to 5.0 nM kallidine (DesArg10,Leu9), [3,4-Prolyl-3,43H(N)] and increasing concentrations of the test substance in a total volume of 250 μl. The incubation is stopped by rapid filtration through GF/B glass fibre filters that have been pre-treated with polyethyleneimine (0.3%). The radioactivity bound to the protein is measured with a TopCount NXT. The radioactivity bound in the presence of 1.0 μM kallidine (DesArg10) is defined as non-specific binding. The concentration binding curve may be analysed using computer-aided non-linear curve fitting to determine the corresponding Ki value for the test substance.
Test results of the cynoBK1-receptor binding assay: […]

Row | Ki [nM] | Compound
1 | 6.1 | COc1ncc(C(=O)N[C@@]2(C(=O)NCc3ncc(Nc4ccc(F)cc4C(F)(F)F)cc3Cl)CCOC2)cn1 [(230)]
2 | 4.2 | Nc1cncc(C(=O)N[C@@]2(C(=O)NCc3ccc(Nc4ccc(F)cc4C(F)(F)F)cc3F)CCOC2)c1 [(231)]
3 | 316 | Nc1ccc(C(=O)N[C@@]2(C(=O)NCc3ccc(Nc4ccc(Cl)cc4C(F)(F)F)cc3)CCOC2)cn1 [(318)]
4 | 40 | Cc1ccc(C(=O)NC2(C(=O)NCc3ccc(Nc4ccc(Br)cc4C(F)(F)F)cn3)CC2)cn1 [(315)]
5 | 17 | Nc1cncc(C(=O)N[C@@]2(C(=O)NCc3ncc(Nc4ccc(Cl)cc4C(F)(F)F)cc3F)CCOC2)c1 [(271)]
6 | 45 | CNc1ccc(C(=O)NC2(C(=O)NCc3ccc(Nc4ccc(F)cc4C(F)(F)F)cn3)CC2)cn1 [(377)]
7 | 1.9 | CC(NC(=O)C1(NC(=O)c2cncnc2)CC1)c1ncc(Nc2ccc(Br)cc2C(F)(F)F)cc1F (centres unmarked) [(213)]
8 | 6.5 | CCCNc1ncc(C(=O)NC2(C(=O)NCc3ccc(Nc4ccc(Cl)cc4C(F)(F)F)cn3)CC2)cn1 [(380)]
9 | 24 | O=C(NC1(C(=O)NCc2ccc(Nc3ccc(Cl)cc3C(F)(F)F)cn2)CC1)c1cn[nH]c1 [(372)]
10 | 3.7 | Nc1cncc(C(=O)NC2(C(=O)NCc3ncc(Nc4ccc(F)cc4C(F)(F)F)cc3Cl)CC2)c1 [(218)]
11 | 157 | Nc1cncc(C(=O)N[C@@]2(C(=O)NCc3ccc(Nc4ccc(Cl)cc4C(F)(F)F)cn3)CCOC2)c1 [(226)]
12 | 21 | CNc1ncc(C(=O)N[C@@]2(C(=O)NCc3ccc(Nc4ccc(F)cc4C(F)(F)F)cc3)CCOC2)cn1 [(289)]
13 | 394 | CNc1cncc(C(=O)N[C@@]2(C(=O)NCc3ncc(Nc4c(F)cccc4C(F)(F)F)cc3Cl)CCOC2)c1 [(259)]
14 | 506 | COc1ccc(C(=O)NC2(C(=O)NCc3ccc(Nc4ccc(Cl)cc4C(F)(F)F)cn3)CC2)cn1 [(240)]
15 | 48 | Cc1cc(Nc2ccc(Cl)cc2C(F)(F)F)cnc1CNC(=O)[C@]1(NC(=O)c2cncc(N)c2)CCOC1 [(346)]
16 | 9.3 | Cc1cc(C(=O)NC2(C(=O)NCc3ccc(Nc4ccc(F)cc4C(F)(F)F)cn3)CC2)cnc1N [(391)]
17 | 21 | CNc1ncc(C(=O)N[C@@]2(C(=O)NCc3ncc(Nc4ccc(Cl)cc4C(F)(F)F)cc3Cl)CCOC2)cn1 [(281)]
18 | 41 | O=C(N[C@@]1(C(=O)NCc2ccc(Nc3ccc(Cl)cc3C(F)(F)F)cc2)CCOC1)c1cncnc1 [(332)]
19 | 17 | Cc1ncc(C(=O)N[C@@]2(C(=O)NCc3ncc(Nc4ccc(Cl)cc4C(F)(F)F)cc3C)CCOC2)cn1 [(345)]
20 | 135 | CNc1ncc(C(=O)N[C@@]2(C(=O)NCc3ccc(Nc4ccc(F)cc4C(F)(F)F)cn3)CCOC2)cn1 [(304)]
21 | 37 | O=C(NC1(C(=O)NCc2ccc(Nc3ccc(Cl)cc3C(F)(F)F)cn2)CC1)c1ccno1 [(369)]
22 | 37 | Nc1cc(C(=O)NC2(C(=O)NCc3ccc(Nc4ccc(F)cc4C(F)(F)F)cn3)CC2)cnn1 [(262)]
23 | 45 | COc1ncc(C(=O)N[C@@]2(C(=O)NCc3ccc(Nc4ccc(F)cc4C(F)(F)F)cc3)CCOC2)cn1 [(300)]
24 | 37 | O=C(NC1(C(=O)NCc2ccc(Nc3ccc(Cl)cc3C(F)(F)F)cn2)CC1)c1cnsc1 [(358)]
25 | 48 | Cc1cc(Nc2ccccc2C(F)(F)F)cnc1CNC(=O)C1(NC(=O)c2cncc(N)c2)CC1 [(375)]
26 | 175 | O=C(NC1(C(=O)NCc2ccc(Nc3ccc(F)cc3C(F)(F)F)cn2)CC1)c1cnc(N2CCCC2)nc1 [(250)]
27 | 8.2 | Nc1cncc(C(=O)N[C@@]2(C(=O)NCc3ccc(Nc4ccccc4C(F)(F)F)cc3F)CCOC2)c1 [(236)]
28 | > 500 | NC(=O)c1ccc(Nc2ccc(CNC(=O)C3(NC(=O)c4cncnc4)CC3)nc2)c(C(F)(F)F)c1 [(198)]
29 | 10 | COc1ncc(C(=O)NC2(C(=O)NCc3ccc(Nc4ccc(F)cc4C(F)(F)F)cn3)CC2)cn1 [(233)]
30 | 14 | CC(=O)Nc1ccc(C(=O)NC2(C(=O)NCc3ccc(Nc4ccc(F)cc4C(F)(F)F)cn3)CC2)cn1 [(251)]

The next lines start with the compound.

Row | Compound | Ki [nM]
31 | CC(C#N)C(=O)NC1(C(=O)NCc2ccc(Nc3ccc(F)cc3C(F)(F)F)cn2)CC1 (centres unmarked) [(170)] | 35
32 | O=C(N[C@@]1(C(=O)NCc2ccc(Nc3ccccc3C(F)(F)F)cc2)CCOC1)c1cc(O)cc(O)c1 [(102)] | 87
33 | O=C(NC1(C(=O)NCc2ccc(Nc3ccc(F)cc3C(F)(F)F)cn2)CC1)c1cncnc1 [(41)] | 2.6
34 | COc1ncc(C(=O)NC2(C(=O)NCc3ccc(Nc4ccc(Br)cc4C(F)(F)F)cn3)CC2)cn1 [(138)] | 6.7
35 | CC(NC(=O)C1(NC(=O)c2cncc(N)c2)CC1)c1ncc(Nc2c(F)cccc2C(F)(F)F)cc1F (centres unmarked) [(122)] | 6.3
36 | O=C(NC1(C(=O)NCc2ccc(Nc3ccc(Cl)cc3C(F)(F)F)cn2)CC1)c1cncnc1 [(55)] | 3.3
37 | O=C(NC1(C(=O)NCc2ccc(Nc3ccc(Br)cc3Cl)cn2)CC1)c1cncnc1 [(126)] | 46
38 | COc1cc(C(=O)N[C@@]2(C(=O)NCc3ccc(Nc4ccccc4C(F)(F)F)cc3)CCOC2)ccn1 [(79)] | 292
39 | O=C(NC1(C(=O)NCc2ccc(Nc3ccc(F)cc3C(F)(F)F)cc2)CC1)c1cncs1 [(29)] | 6.2
40 | Cn1ccc(C(=O)N[C@@]2(C(=O)NCc3ccc(Nc4ccccc4C(F)(F)F)cc3)CCOC2)cc1=O [(84)] | 90
41 | CNc1ncc(C(=O)NC2(C(=O)NCc3ccc(Nc4ccc(F)cc4C#N)cc3)CC2)cn1 [(183)] | 21

Same assay, conditions: at 10 μgmol/L; CHO cells expressing cynomolgus BK1-receptor, radioligand kallidine (DesArg10,Leu9)

Row | Compound | inhibition at 10 µM [%] | % inhibition at 10 μgmol/L [%]
42 | O=C(N[C@@]1(C(=O)NCc2ccc(Nc3ccccc3C(F)(F)F)cc2)CCOC1)C1CCOC1 (some centres unmarked) [(60)] | 84 | –
43 | CC(C#N)C(=O)NC1(C(=O)NCc2ccc(Nc3ccc(F)cc3C(F)(F)F)cn2)CC1 (centres unmarked) [(170)] | 104 | –
44 | O=C(NC1(C(=O)NCc2ccc(Nc3ccccc3C(F)(F)F)cc2)CC1)c1cncc(C(F)(F)F)c1 [(26)] | 109 | –
45 | O=C(N[C@@]1(C(=O)NCc2ccc(Nc3ccccc3C(F)(F)F)cc2)CCOC1)c1cc(O)cc(O)c1 [(102)] | 105 | –
46 | O=C(N[C@@]1(C(=O)NCc2ccc(Nc3ccccc3C(F)(F)F)cc2)CCOC1)c1cccc(O)n1 [(70)] | 107 | –
47 | O=C(NC1(C(=O)NCc2ccc(Nc3ccc(F)cc3C(F)(F)F)cn2)CC1)c1cncnc1 [(41)] | 108 | –
48 | O=C(N[C@@]1(C(=O)NCc2ccc(Nc3ccccc3C(F)(F)F)cc2)CCOC1)c1cccc(Cl)n1 [(67)] | 63 | –
49 | COc1ncc(C(=O)NC2(C(=O)NCc3ccc(Nc4ccc(Br)cc4C(F)(F)F)cn3)CC2)cn1 [(138)] | 107 | –
50 | CC(NC(=O)C1(NC(=O)c2cncc(N)c2)CC1)c1ncc(Nc2c(F)cccc2C(F)(F)F)cc1F (centres unmarked) [(122)] | 113 | –
51 | O=C(NC1(C(=O)NCc2ccc(Nc3ccc(Cl)cc3C(F)(F)F)cn2)CC1)c1cncnc1 [(55)] | 108 | –
52 | O=C(N[C@@]1(C(=O)NCc2ccc(Nc3ccccc3C(F)(F)F)cc2)CCOC1)c1cncnc1 [(155)] | – | 101
53 | CN(C)CCCC(=O)NC1(C(=O)NCc2ccc(Nc3ccccc3C(F)(F)F)cc2)CC1 [(6)] | 59 | –
54 | O=C(NC1(C(=O)NCc2ccc(Nc3ccc(Br)cc3Cl)cn2)CC1)c1cncnc1 [(126)] | 103 | –
55 | CNc1ncc(C(=O)NC2(C(=O)NCc3ncc(Nc4c(F)cccc4C(F)(F)F)cc3F)CC2)cn1 [(133)] | 101 | –
56 | COc1cc(C(=O)N[C@@]2(C(=O)NCc3ccc(Nc4ccccc4C(F)(F)F)cc3)CCOC2)ccn1 [(79)] | 104 | –
57 | O=C(NC1(C(=O)NCc2ccc(Nc3ccc(F)cc3C(F)(F)F)cc2)CC1)c1cncs1 [(29)] | 113 | –
58 | O=C(N[C@@]1(C(=O)NCc2ccc(Nc3ccccc3C(F)(F)F)cc2)CCOC1)c1cncnc1 [(127)] | 108 | –
59 | Cn1ccc(C(=O)N[C@@]2(C(=O)NCc3ccc(Nc4ccccc4C(F)(F)F)cc3)CCOC2)cc1=O [(84)] | 104 | –
60 | Cc1nc(N)sc1C(=O)NC1(C(=O)NCc2ccc(Nc3ccc(F)cc3C(F)(F)F)cn2)CC1 [(186)] | 82 | –
61 | CNc1ncc(C(=O)NC2(C(=O)NCc3ccc(Nc4ccc(F)cc4C#N)cc3)CC2)cn1 [(183)] | 100 | –
62 | CN1CC(C(=O)N[C@@]2(C(=O)NCc3ccc(Nc4ccccc4C(F)(F)F)cc3)CCOC2)CC1=O (some centres unmarked) [(71)] | 80 | –
63 | O=C(NC1(C(=O)NCc2ccc(Nc3ccccc3C(F)(F)F)cn2)CCCCC1)c1cncnc1 [(191)] | 56 | –
64 | CNc1ncc(C(=O)N[C@@]2(C(=O)NCc3ccc(Nc4ccccc4C(F)(F)F)cc3)CCOC2)cn1 [(82)] | 107 | –
65 | NC(=O)c1ccc(Nc2ccc(CNC(=O)C3(NC(=O)c4cncnc4)CC3)nc2)c(C(F)(F)F)c1 [(198)] | 64 | –
